Data on 77 compounds can be found in ChEMBL document CHEMBL1137703, “Predictive QSAR modeling of HIV reverse transcriptase inhibitor TIBO derivatives” (Eur J Med Chem, 2009).

The structures appear in SMILES notation.

For one assay, the target named is Human immunodeficiency virus type 1 reverse transcriptase (Human immunodeficiency virus 1, UniProt Q72547). Nature of the assay: Inhibition of HIV1 reverse transcriptase.
Conditions: not given
On to `CCCN1CCn2c(=S)[nH]c3cccc(c32)C1C` (configuration not stated), for which the “log(1/IC50)” value is 5.61.

On to `CCCN1Cc2cccc3[nH]c(=O)n(c23)CC1C` (configuration not stated), for which the “log(1/IC50)” value is recorded as 4.22.

Consider `CC1CN(CC2CC2)Cc2cc(Cl)cc3[nH]c(=S)n1c23` (configuration not stated), for which the “log(1/IC50)” value is recorded as 5.66.

As for `CCCN1Cc2cccc3[nH]c(=S)n(c23)CC1C` (configuration not stated), the “log(1/IC50)” value is on record as 5.78.

Staying with this assay, now noted: read-out: log(1/IC50) (converted).
As for `CCCN1Cc2cccc3[nH]c(=O)n(c23)C(C(C)C)C1` (configuration not stated), the IC50 was 74100 nM.

As for `CCCN1CCn2c(=O)[nH]c3cccc(c32)C1C` (configuration not stated), the IC50 is 83200 nM.

On to `C[C@H]1Cn2c(=O)[nH]c3cc(N)cc(c32)CN1CC1CC1`, for which the IC50 is 60500 nM.

As to `S=c1[nH]c2cccc3c2n1C(Cc1ccccc1)C(Cc1ccccc1)N(CC1CC1)C3` (configuration not stated), the IC50 was 10000 nM.

On to `C[C@H]1Cn2c(=O)[nH]c3cc(N(C)C)cc(c32)CN1CC1CC1`, for which the IC50 is 6650 nM.

Regarding `C[C@H]1Cn2c(=O)[nH]c3cc([N+](=O)[O-])cc(c32)CN1CC1CC1`, the IC50 was 33400 nM.

With `CCCN1Cc2cc(Cl)cc3[nH]c(=S)n(c23)C(=O)C1C` (configuration not stated), the IC50 was 50100 nM.

As to `C[C@H]1Cn2c(=O)[nH]c3ccc(N(C)C)c(c32)CN1CC1CC1`, the IC50 was 6650 nM.

Turning to `S=c1[nH]c2cc(Cl)cc3c2n1CCN1CCCCC31` (configuration not stated), the IC50 is 2000 nM.

As to `C=CCN1Cc2cccc3[nH]c(=O)n(c23)C[C@@H]1C`, the IC50 was 70100 nM.

For the compound `C=C(C)N1Cc2cccc3[nH]c(=O)n(c23)C(C)C1` (configuration not stated), the IC50 was 32400 nM.

Regarding `CC(C)=CN1Cc2cccc3[nH]c(=O)n(c23)C[C@@H]1C`, the IC50 was 3310 nM.

For the compound `CC(C)=CN1CCn2c(=S)[nH]c3ccc(Cl)c(c32)C1C` (configuration not stated), the IC50 is 12 nM.

Regarding `C=C(C)N1Cc2cccc3[nH]c(=O)n(c23)CC1(C)C`, the IC50 is 22900 nM.

On to `COc1ccc2c3c1[nH]c(=O)n3C[C@H](C)N(C=C(C)C)C2`, for which the IC50 is 6610 nM.

Consider `C#Cc1ccc2[nH]c(=S)n3c2c1CN(C=C(C)C)[C@@H](C)C3`, for which the IC50 is 29.5 nM.

For `CC(C)=CN1[C@@H](C)Cn2c(=O)[nH]c3cc(Cl)cc(c32)[C@@H]1C`, the IC50 was 5010 nM.

Take `C/C=C1/C[C@H]2Cn3c(=S)[nH]c4cc(Cl)cc(c43)CN2C1`: the IC50 was 3800 nM.

With `CC(C)=CN1Cc2cc(Cl)cc3[nH]c(=O)n(c23)C[C@@H]1C`, the IC50 is 182 nM.

In the case of `C[C@H]1Cn2c(=S)[nH]c3cc(Cl)cc(c32)CN1CC1CC1`, the IC50 is 33.9 nM.

On to `CC(C)=CN1Cc2c(I)ccc3[nH]c(=O)n(c23)C[C@@H]1C`, for which the IC50 was 87.1 nM.

For `CC(C)=CN1[C@H](C)Cn2c(=O)[nH]c3cc(Cl)cc(c32)[C@H]1C`, the IC50 is 229 nM.

In the case of `CC(C)=CN1[C@H](C)Cn2c(=S)[nH]c3cc(Cl)cc(c32)[C@H]1C`, the IC50 was 479 nM.

Regarding `C#Cc1ccc2[nH]c(=O)n3c2c1CN(C=C(C)C)[C@@H](C)C3`, the IC50 was 437 nM.

For `CC(C)=CN1Cc2ccc(Br)c3[nH]c(=S)n(c23)C[C@@H]1C`, the IC50 was 1070 nM.

`CCOc1ccc2[nH]c(=S)n3c2c1CN(C=C(C)C)[C@@H](C)C3`: the IC50 was 95.9 nM.

As to `CC(C)=CN1Cc2c(C(N)=O)ccc3[nH]c(=O)n(c23)C[C@@H]1C`, the IC50 is 6350 nM.

Regarding `C=C(C)N1Cc2cccc3[nH]c(=O)n(c23)C(CCC)C1` (configuration not stated), the IC50 is 47900 nM.

Consider `CC(C)=CN1CCn2c(=S)[nH]c3cc(Cl)cc(c32)C1`, for which the IC50 is 162 nM.

As to `CC(C)=CN1CCn2c(=O)[nH]c3cc(Cl)cc(c32)C1C` (configuration not stated), the IC50 was 162 nM.

For `CC(C)=CN1Cc2c(C#N)ccc3[nH]c(=O)n(c23)C[C@@H]1C`, the IC50 is 1150 nM.

For `C=C(C)N1Cc2cccc3[nH]c(=O)n(c23)CC1CC` (configuration not stated), the IC50 was 50100 nM.

Turning to `C=C(C)N1Cc2cccc3[nH]c(=O)n(c23)CC1C(C)C` (configuration not stated), the IC50 was 10000 nM.

Take `CC(C)=CN1Cc2cccc3[nH]c(=O)n(c23)CC1C(C)C` (configuration not stated): the IC50 was 10000 nM.

For `C=C(C)N1Cc2cc(Cl)cc3[nH]c(=S)n(c23)C(C)C1` (configuration not stated), the IC50 was 676 nM.

Consider `COc1ccc2c3c1[nH]c(=S)n3C[C@H](C)N(C=C(C)C)C2`, for which the IC50 is 4680 nM.

`CC(C)=CN1CCn2c(=S)[nH]c3cc(Cl)cc(c32)C1C` (configuration not stated): the IC50 is 22.9 nM.

In the case of `CC(C)=CN1Cc2c(Br)ccc3[nH]c(=O)n(c23)C[C@@H]1C`, the IC50 is 47.4 nM.

Turning to `COc1ccc2[nH]c(=S)n3c2c1CN(C=C(C)C)[C@@H](C)C3`, the IC50 was 34 nM.

As to `C=C(C)N1Cc2cccc3[nH]c(=S)n(c23)C[C@@H]1C`, the IC50 is 26.3 nM.

As for `CC(C)=CN1CCn2c(=O)[nH]c3cccc(c32)C1`, the IC50 was 12600 nM.

As to `C=C(C)N1Cc2cccc3[nH]c(=O)n(c23)CC1C` (configuration not stated), the IC50 is 34700 nM.

`C[C@H]1Cn2c(=S)[nH]c3cccc(c32)CN1CC1CC1`: the IC50 is 60.3 nM.

Turning to `CC(C)=CN1Cc2cccc3[nH]c(=S)n(c23)CC1C` (configuration not stated), the IC50 is 97.7 nM.

`C=C(C)N1CCn2c(=O)[nH]c3cccc(c32)C1`: the IC50 was 46800 nM.

Turning to `CC(C)=CN1Cc2cccc3[nH]c(=S)n(c23)C[C@@H]1C`, the IC50 was 44.2 nM.

Take `CC(C)=CN1Cc2c(Br)ccc3[nH]c(=S)n(c23)C[C@@H]1C`: the IC50 was 3.01 nM.

As to `C=C(CC)N1CCn2c(=O)[nH]c3cccc(c32)C1`, the IC50 is 37200 nM.

With `CC(C)=CN1Cc2c(C)ccc3[nH]c(=O)n(c23)C[C@@H]1C`, the IC50 is 1000 nM.

As for `CC(C)=CN1Cc2cc(Cl)cc3[nH]c(=S)n(c23)C[C@@H]1C`, the IC50 is 42.7 nM.

Turning to `CC(C)=CN1Cc2c(C)ccc3[nH]c(=S)n(c23)C[C@@H]1C`, the IC50 is 13.6 nM.

In the case of `CC(C)=CN1Cc2c(I)ccc3[nH]c(=S)n(c23)C[C@@H]1C`, the IC50 is 47.9 nM.

`CC(C)=CN1Cc2c(F)ccc3[nH]c(=S)n(c23)C[C@@H]1C`: the IC50 was 5.82 nM.

Consider `CC(C)=CN1Cc2cc(Cl)c(Cl)c3[nH]c(=S)n(c23)C[C@@H]1C`, for which the IC50 was 25.6 nM.

With `CC(C)=CN1CCn2c(=S)[nH]c3cccc(c32)C1C` (configuration not stated), the IC50 is 77.6 nM.

As to `CC(C)=CN1Cc2c(Cl)ccc3[nH]c(=S)n(c23)C[C@@H]1C`, the IC50 is 5.01 nM.

For `C=C(C)N1Cc2cccc3[nH]c(=O)n(c23)C(C(C)C)C1` (configuration not stated), the IC50 is 12600 nM.

For `CC(C)=CN1CCn2c(=O)[nH]c3ccc(Cl)c(c32)C1C` (configuration not stated), the IC50 was 145 nM.

Regarding `CC(C)=CN1Cc2c(C#N)ccc3[nH]c(=S)n(c23)C[C@@H]1C`, the IC50 was 56.2 nM.

In the case of `CC(C)=CN1Cc2cc(F)cc3[nH]c(=S)n(c23)C[C@@H]1C`, the IC50 is 25 nM.

For the compound `CCCN1CCn2c(=O)[nH]c3cccc(c32)C1`, the IC50 is 89100 nM.

As to `CSc1ccc2[nH]c(=S)n3c2c1CN(C=C(C)C)[C@@H](C)C3`, the IC50 is 5 nM.

For the compound `CC(C)=CN1Cc2c(C=O)ccc3[nH]c(=S)n(c23)C[C@@H]1C`, the IC50 is 186 nM.

For `CC(C)=CN1CCn2c(=S)[nH]c3ccc(Cl)c(c32)C1`, the IC50 was 45.7 nM.

Turning to `CC(C)=CN1CCn2c(=O)[nH]c3cccc(c32)C1C` (configuration not stated), the IC50 is 12000 nM.

Take `C[C@H]1Cn2c(=S)[nH]c3cc([N+](=O)[O-])cc(c32)CN1CC1CC1`: the IC50 was 2450 nM.

Turning to `CC(C)=CN1C[C@H](C)n2c(=S)[nH]c3cccc(c32)[C@H]1C` (relative stereo), the IC50 is 25700 nM.

Take `CC(C)=CN1Cc2cccc3[nH]c(=S)n(c23)[C@@H](C)[C@@H]1C` (relative stereo): the IC50 was 14500 nM.

On to `CC(C)=CN1Cc2cccc3[nH]c(=O)n(c23)[C@@H](C)[C@H]1C` (relative stereo), for which the IC50 is 56200 nM.

Consider `CC(C)=CN1[C@H](C)c2cccc3[nH]c(=S)n(c23)C[C@@H]1C` (relative stereo), for which the IC50 is 1150 nM.

Turning to `CC(C)=CN1[C@@H](C)Cn2c(=S)[nH]c3cccc(c32)[C@@H]1C` (relative stereo), the IC50 is 41.7 nM.

As for `CC(C)=CN1Cc2cccc3[nH]c(=S)n(c23)[C@@H](C)[C@H]1C` (relative stereo), the IC50 was 2240 nM.

On to `C[C@H]1[C@H](C)n2c(=S)[nH]c3cccc(c32)CN1CC1CC1` (relative stereo), for which the IC50 was 13500 nM.
